Data reported in paper PMC9590307, “Peptide ^Tat(48–60) YVEEL protects against necrotizing enterocolitis through inhibition of toll-like receptor 4-mediated signaling in a phosphatidylinositol 3-kinase/AKT dependent manner” (Frontiers in Nutrition, 2022).

Columns and labels:
Assay type in all cases: cell-based, human
[1] = tested on: TLR4-mediated signaling in FHC enterocytes; experiment: qRT-PCR of IL-6 and COX-2 mRNA in LPS-treated enterocytes
[2] = tested on: TLR4-mediated signaling in FHC enterocytes; experiment: Western blot of TLR4-mediated signaling in LPS-treated enterocytes
[3] = tested on: p65 subunit of NF-κB in FHC cells; experiment: Immunofluorescence staining of NF-κB p65 nuclear translocation; conditions: Ys49 2 and 5 μM with peptide 40 μM for 1 h, then LPS
Description: FHC cells were fixed, washed and blocked, and then incubated with the following primary antibodies: anti-NF-κB p65 (Cell Signaling Technology, USA) and […]. The Alexa Fluor® 488-labeled goat anti-rabbit secondary antibody was used (Cell Signaling Technology, USA). FHC cells were counterstained with DAPI (Sigma-Aldrich, USA) and visualized using a fluorescence microscope (Zeiss, Germany).

FHC cells = experiment: In vitro enterocyte migration (scratch wound); conditions: Ys49 2 and 5 μM with peptide 40 μM for 1 h, then LPS
Description: Cells were expected to reach a 100% confluence on the day of the experiment. Monolayers were scratched by a sterile pipette tip and washed for three times with pre-warmed 1 × PBS. The wounded monolayer of FHC or IEC-6 cells was imaged at indicated time using a microscope (Zeiss, Germany). The relative migration index of the cells was measured according to the area of the wound edge by Image J software (NIH Image, USA).

[4] = tested on: PI3K/AKT pathway in FHC enterocytes; experiment: Western blot of PI3K and AKT phosphorylation; conditions: Ys49 2 and 5 μM with ^Tat(48–60) YVEEL 40 μM for 1 h, then LPS
Description: Cell pellets or intestinal tissues were lysed with RIPA buffer (Beyotime, China) for 20 min on ice and lysates were collected by centrifugation (13000 × g, 20 min at 4°C). Protein concentrations were quantified using the BCA Protein Assay (Thermo Fisher Scientific, USA) and equal amounts (20 μg) of protein lysates from each sample were separated by SDS-PAGE. Separated proteins were then transferred to PVDF membranes (Millipore, USA). Membranes were blocked with 5% skim milk or BSA and then incubated with the following primary antibodies: anti-TLR4 (Abcam, USA), anti-p-IκBα (Abcam, USA), anti-IκBα (Abcam, USA), anti-p-PI3K (Cell Signaling Technology, USA), anti-p-AKT (Cell Signaling Technology, USA), anti-PI3K (Cell Signaling Technology, USA), anti-AKT (Cell Signaling Technology, USA), anti-β-actin (Abcam, USA). Membranes were then incubated with species-matched HRP-conjugated secondary antibodies (Biosharp, China). Protein expressions were visualized using Immobilon® Western Chemiluminescent HRP Substrate (Millipore, USA) in accordance with the manufacturer’s protocol.

[5] = LY294002 10 μM in the absence or presence of ^Tat(48–60) YVEEL 40 μM, LPS
[6] = Ys49 2 and 5 μM with ^Tat(48–60) YVEEL 40 μM for 1 h, then LPS

Row | SMILES | TLR4-induced mRNA expression of COX-2 [1, 5] | TLR4-induced mRNA expression of IL-6 [1, 5] | TLR4 protein expression, inhibition in the presence of ^Tat(48–60) YVEEL ([2]; LY294002 10 μM plus ^Tat(48–60) YVEEL 40 μM, LPS) | TLR4 protein expression ([2]; LY294002 10 μM, LPS) | effect on protective effect of ^Tat(48–60) YVEEL on TLR4-mediated induction of pro-inflammatory cytokines (IL-6, COX-2 mRNA) [1, 6] | effect on blockage of TLR4-mediated cytoplasm-nucleus translocation of p65 by the peptide [3] | effect on ^Tat(48–60) YVEEL-induced reduction of TLR4 expression [2, 6] | effect on ^Tat(48–60) YVEEL-induced reduction of p-IκBα expression [2, 6] | effect on protective effect of ^Tat(48–60) YVEEL on enterocyte migration (FHC cells) | effect on inhibitory effects of ^Tat(48–60) YVEEL on PI3K/AKT pathway [4]
1 | O=c1cc(N2CCOCC2)oc2c(-c3ccccc3)cccc12 [LY294002] | reduced | reduced | more significant | could inhibit | – | – | – | – | – | –
2 | Oc1cc2c(cc1O)C(Cc1cccc3ccccc13)NCC2 (stereo not shown) [Ys49] | – | – | – | – | reversed | attenuated | notably reversed | notably reversed | attenuated | significantly abolished
